From patent publication US20050154042A1, “N-alkyl pyrroles as HMG-CoA reductase inhibitors” (priority 2003, published 2005)
Counter-ions that a name gives are not always drawn.

Experiments:
rat hepatocytes = assay: Sterol biosynthesis in rat hepatocytes (14C acetic acid labeling); assay type: cell-based; settings: Hepatocyte, 14C cholesterol from 14C acetic acid, 4 hrs pre-incubation + 4 hrs labeling
Procedure: Protocol for Sterol Biosynthesis in Rat Hepatocytes:
(§1) Cell Culture, Compounds Treatment and Cell Labeling:
Frozen rat hepatocytes purchased from XenoTech(cat# N400572) were seeded on 6-well collagen I coated plates at a density of […]. The cells were grown in DMEM medium (Gibco, #11054-020) containing 10% FBS and 10 mM HEPES(Gibco # 15630-080) for 24 hrs. The cells were pre-incubated with compounds for 4 hrs and then labeled by incubating in medium containing 1 uCi/per ml of ^14C acetic acid for an additional 4 hrs. After labeling, the cells were washed twice with 5 mM MOPS solution containing 150 mM NaCl and 1 mM EDTA and collected in the lysis buffer containing 10% KOH and 80%(vol.) ethanol.
Cholesterol Extraction and Data Analysis:
In order to separate labeled cholesterol from labeled non-cholesterol lipids, the cells lysates were subject to saponification at 60° C. for 2 hrs. The lysates were then combined with 0.5 volume of H2O and 2 volumes of hexane, followed by 30 minutes of vigorous shaking. After the separation of two phases, the upper-phase solution was collected and combined with 5 volumes of scintillation cocktail. The amount of ^14C cholesterol was quantified by liquid scintillation counting. The IC50 values were calculated with GraphPad software (Prism 3.03).

L6 rat myoblast = assay: Sterol biosynthesis in L6 rat myoblast (14C acetic acid labeling); assay type: cell-based; settings: 14C cholesterol from 14C acetic acid, 3 hours pre-incubation + 3 hours labeling
Procedure: C.) Protocol for Sterol Biosynthesis in L6 Rat Myoblast:
as §1
L6 rat myoblast purchased from ATCC(CRL-1458) were grown in T-150 vented culture flasks and seeded on 12-well culture plates at a density of 60,000 cells per well. The cells were grown in DMEM, (Dulbecco's Modified Eagle Medium) (Gibco, #10567-014) containing 10% heat inactivated FBS (Fetal Bovine Serum) (Gibco # 10082-139) for 72 hours until reaching confluence. The cells were pre-incubated in media with compound and 0.2% DMSO (dimethyl sulfoxide) for 3 hours and then labeled by incubating in medium containing compound, 0.2% DMSO and 1 μCi/per mL of ^14C acetic acid for an additional 3 hours. […]
Lipid ester bonds were hydrolyzed by saponification of the lysates at 60° C. for 2 hours. […] The amount of ^14C cholesterol was quantified by scintillation counting in a Trilux 1450 plate reader (Wallac). The IC50 values were calculated from % inhibitions relative to negative controls vs. compound concentration on Microsoft excel 2000 data analysis wizard using a sigmoid inhibition curve model with formula: y=Bmax(1−(x^n/K^n+x^n))+y2 Where K is the IC50 for the inhibition curve, X is inhibitor concentration, Y is the response being inhibited and Bmax+Y2 is the limiting response as X approaches zero.

[1] = target: T1, HMGCoA (3-Hydroxy-3-methylglutaryl CoA) Reductase (Rattus norvegicus, UniProt P51639); assay: HMGCoA reductase assay with rat liver microsomes (14C-HMGCoA); assay type: biochemical; settings: 45 min at 37° C.
T1 construct: Male Charles River Sprague-Dawley rats were fed with 2.5% cholestyramine in rat chow diets for 5 days before sacrificing; from tissue; host or cells: liver microsomes of male Sprague-Dawley rats fed cholestyramine
T1 sequence (P51639 1-887): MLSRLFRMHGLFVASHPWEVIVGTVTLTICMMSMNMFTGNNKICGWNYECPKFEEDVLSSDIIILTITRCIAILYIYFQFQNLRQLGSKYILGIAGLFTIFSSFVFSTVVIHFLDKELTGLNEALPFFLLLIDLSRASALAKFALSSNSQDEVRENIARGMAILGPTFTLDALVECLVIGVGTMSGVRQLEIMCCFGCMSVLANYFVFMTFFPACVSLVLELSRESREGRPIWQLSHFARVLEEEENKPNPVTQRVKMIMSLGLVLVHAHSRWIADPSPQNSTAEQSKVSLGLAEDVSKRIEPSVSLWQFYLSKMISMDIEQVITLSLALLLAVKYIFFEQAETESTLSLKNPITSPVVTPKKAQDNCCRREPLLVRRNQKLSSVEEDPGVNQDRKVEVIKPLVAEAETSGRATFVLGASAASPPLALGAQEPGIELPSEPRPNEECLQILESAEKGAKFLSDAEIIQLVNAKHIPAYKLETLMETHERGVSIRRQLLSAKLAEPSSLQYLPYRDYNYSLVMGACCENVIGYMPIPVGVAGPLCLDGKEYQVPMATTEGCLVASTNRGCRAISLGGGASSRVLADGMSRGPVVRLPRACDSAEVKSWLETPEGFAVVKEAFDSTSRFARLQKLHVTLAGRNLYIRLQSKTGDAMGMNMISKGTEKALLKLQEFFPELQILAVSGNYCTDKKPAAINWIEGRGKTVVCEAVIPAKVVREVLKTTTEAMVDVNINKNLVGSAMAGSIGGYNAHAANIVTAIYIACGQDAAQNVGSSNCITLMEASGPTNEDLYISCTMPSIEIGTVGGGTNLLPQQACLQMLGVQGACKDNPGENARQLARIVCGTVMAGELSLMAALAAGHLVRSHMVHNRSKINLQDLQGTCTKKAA
Text: (See, e.g., J. of Lipid Research 1998; 39: 75-84; Analytical Biochemistry, 1991; 196: 211-214; RR740-01077 Pharmacology 8, Nov., 1982) Accordingly, such compounds and formulations comprising such compounds are useful for treating, controlling or preventing inter alia hypercholesterolemia, hyperlipidemia, hypertriglyceridemia or atherosclerosis.
Rat Liver Microsomal Isolation Procedure:
Male Charles River Sprague-Dawley rats were fed with 2.5% cholestyramine in rat chow diets for 5 days before sacrificing. Livers were minced and homogenized in a sucrose homogenizing solution in an ice bath 10 times. Homogenates were diluted into a final volume of 200 mL, and centrifuged 15 min. with a Sorvall Centrifuge at 5° C., 10,000 rpm (12,000×G). The upper fat layer was removed and the supernatant decanted into fresh tubes. This step was repeated one more time before transferring the supernatant into ultracentrifuge tubes and centrifuged at 36,000 rpm (105,000×G) for an hour at 5° C. The resulting supernatant was discarded and the pellet was added to total of 15 mL 0.2 M KH2PO4. Pellets were homogenized gently by hand about 10 times. Samples were pooled and diluted into total of 60 mL buffer. The protein concentration of the homogenate was determined by the […] using a BCA kit from Pierce Chemical Company. 1 mL aliquots of microsomes were kept frozen in liquid nitrogen.
HMGCoA (3-Hydroxy-3-methylglutaryl CoA) Reductase Assay:
[3-^14C]-HMGCoA (57.0 mCi/mmol) was purchased from Amersham Biosciences, UK. HMGCoA, mevalonolactone, NADPH were purchased from Sigma Chemical Co. AG 1-8X resin was purchased from Bio-Rad Laboratory.
One μL of dimethyl sulfoxide (DMSO) or 1 μL of DMSO containing a test compound at a concentration sufficient to give a final assay concentration of between 0.1 nM to 1 mM was placed into each well of a Corning 96 well plate. […] Scintillation cocktail (Ultima-Flo-M) was added into each well and plates counted on a Trilux Microbeta Counter. The IC50 values were calculated with GraphPad software (Prism). […]

Compound `CC(C)n1c(CCC(O)CC(O)CC(=O)[O-])c(-c2ccc(F)cc2)c(-c2ccccc2)c1C(=O)Nc1ccc(C(=O)[O-])cn1.[Na+].[Na+]` (stereo not shown) [Example 25, 6-{[5-(6-Carboxy-3,5-dihydroxy-hexyl)-4-(4-fluoro-phenyl)-1-isopropyl-3-phenyl-1H-pyrrole-2-carbonyl]-amino}-nicotinic Acid di-sodium Salt] has an IC50 (rat hepatocytes) of 0.19 nM, an IC50 (L6 rat myoblast) of 2270 nM and a melting point of over 250 °C. For the same compound, the IC50 [1] was 0.61 nM.

`CC(C)n1c(CC[C@@H](O)C[C@@H](O)CC(=O)[O-])c(-c2ccc(F)cc2)c(-c2ccccc2)c1C(=O)Nc1ccccc1.[Na+]` [Example 1, (3R,5R)-7-[3-(4-fluoro-phenyl)-1-isopropyl-4-phenyl-5-phenylcarbamoyl-1H-pyrrol-2-yl]-3,5-dihydroxy-heptanoic Acid Sodium Salt] gave an IC50 (rat hepatocytes) of 0.74 nM, an IC50 (L6 rat myoblast) of 157 nM and a melting point of 239 to 241 °C. The IC50 [1] was 12 nM.

For `CC(C)n1c(CC[C@@H](O)C[C@@H](O)CC(=O)O)c(-c2ccc(F)cc2)c(-c2ccccc2)c1C(=O)Nc1ccc(F)cc1` [Example 6, (3R,5R)-7-[3-(4-Fluoro-phenyl)-5-(4-fluoro-phenylcarbamoyl)-1-isopropyl-4-phenyl-1H-pyrrol-2-yl]-3,5-dihydroxy-heptanoic Acid Sodium Salt], the IC50 (rat hepatocytes) was 0.23 nM and the IC50 [1] was 4.1 nM.
